{
  "source": "patent US20160074517A1",
  "about": "“AQUEOUS FORMULATIONS OF SPARINGLY WATER-SOLUBLE ACTIVE INGREDIENTS COMPRISING AS SOLUBILIZER A MIXTURE OF POLOXAMERS DIFFERING IN HYDROPHOBICITY” (BASF SE, priority 2013, published 2016)",
  "experiment": "Solubilization of sparingly water-soluble active ingredient in aqueous poloxamer formulations, quantified by UV/Vis spectroscopy",
  "assay_type": "physicochemical",
  "experimental": "General procedure for the preparation of the aqueous formulations: […]\nThe data in % by weight in the tables below refer to the total amount of the aqueous formulation.\nComponents A and B in the amounts stated below in each case and also 2% by weight of active ingredient were dissolved in water (at 20° C. and ambient pressure).\nThe sample was stirred at 20° C. for 24 h (magnetic stirrer 500 rpm) and then filtered through an injection filter (PVDF filter membrane, 0.45 μm pore size).\nThe active ingredient quantification takes place via UV/Vis spectroscopy. For this, the samples were diluted with an organic solvent in which the active ingredient dissolves to at least 10 000 ppm (1% by weight) (ethanol).\nBy contrast, the solubilizing effect of a 5% strength by weight aqueous solution of PE10400 as individual component was stipulated as standard with the value 1 and the solubilizing effect of the mixtures was determined against this standard.\nThe solubilizing effect of a 5% strength by weight aqueous solution of PE 10400 was again selected as standard 1.",
  "data": [
    {"smiles": "Cn1cc(C(=O)Nc2ccccc2-c2cc(F)c(F)c(F)c2)c(C(F)F)n1", "note": "[fluxapyroxad]", "values": [
      {"measurement": "solubility in a 5% strength by weight aqueous solution of PE 4300 (component B)", "setting": "5% by weight PE 4300 in water, 20° C., 24 h stirring, filtered 0.45 μm", "value": 28, "unit": "ppm"},
      {"measurement": "solubility in a 5% strength by weight aqueous solution of PE 6200 (component B)", "setting": "5% by weight PE 6200 in water, 20° C., 24 h stirring, filtered 0.45 μm", "value": 31, "unit": "ppm"},
      {"measurement": "solubility in a 5% strength by weight aqueous solution of PE 10400 (component A)", "setting": "5% by weight PE 10400 in water, 20° C., 24 h stirring, filtered 0.45 μm", "value": 710, "unit": "ppm"},
      {"measurement": "solubility in pure water", "setting": "pure water", "value": 5, "unit": "ppm"}
    ]}
  ]
}
